Structures can show the parent of a compound that is named as a salt.
target: T1, HCV polymerase (Hepatitis C virus genotype 1b, UniProt P26663); test: biochemical; set-up: species or system HCV BK strain
T1 construct: a region encoding NS5B (J Virol 1991 March, 65(3), 1105-13, 544 amino acids after deletion of 47 amino acids on the C-terminal); 6xHis (C); made in house; host or cells: Escherichia coli
Summary of the method: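 His-tagged NS5B (BK strain, 47-aa C-terminal deletion, E. coli-expressed) at 0.5 μg/ml copied 5 μg/ml run-off RNA bearing the HCV 3′ UTR with 2 μM UTP plus [3H]UTP, 50 μM ATP/GTP, in pH 7.5 Tris with 5 mM MgCl2, 25 °C, 90 min. TCA-precipitated RNA was counted and IC50 calculated.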

T1 sequence (P26663 2420-2963): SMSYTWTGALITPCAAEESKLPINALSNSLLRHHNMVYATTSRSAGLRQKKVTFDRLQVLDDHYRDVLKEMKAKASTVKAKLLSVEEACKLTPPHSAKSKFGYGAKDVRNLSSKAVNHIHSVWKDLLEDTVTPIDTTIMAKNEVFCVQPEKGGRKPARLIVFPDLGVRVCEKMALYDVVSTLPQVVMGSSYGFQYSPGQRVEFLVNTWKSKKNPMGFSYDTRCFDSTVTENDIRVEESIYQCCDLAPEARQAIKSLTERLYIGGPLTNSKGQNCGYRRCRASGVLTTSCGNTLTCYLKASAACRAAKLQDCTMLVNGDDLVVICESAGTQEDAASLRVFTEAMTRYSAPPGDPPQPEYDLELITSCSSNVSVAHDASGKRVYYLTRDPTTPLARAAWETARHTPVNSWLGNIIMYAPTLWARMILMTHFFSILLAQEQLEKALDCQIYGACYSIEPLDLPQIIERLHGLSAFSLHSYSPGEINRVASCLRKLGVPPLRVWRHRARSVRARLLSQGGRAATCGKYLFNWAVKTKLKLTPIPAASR

Question: With `CC(C)(NC(=O)c1ccc2c(C3CCCCC3)c3n(c2c1)CCOc1ccccc1-3)C(=O)N1CCN(CCO)CC1` [Example 2-304, N-{2-[4-(2-hydroxyethyl)piperazin-1-yl]-1,1-dimethyl-2-oxoethyl}-12-cyclohexyl-6,7-dihydro-5-oxa-7a-azadibenzo[a,e]azulene-9-carboxamide] as the molecule, how does the IC50 read?
Answer: The IC50 was < 100 nM.

Question: `COCCN1CCN(C(=O)C(C)(C)NC(=O)c2ccc3c(C4CCCCC4)c4n(c3c2)CCOc2ccccc2-4)CC1` [Example 2-305, N-{2-[4-(2-methoxyethyl)piperazin-1-yl]-1,1-dimethyl-2-oxoethyl}-12-cyclohexyl-6,7-dihydro-5-oxa-7a-azadibenzo[a,e]azulene-9-carboxamide] was tested. Which IC50 did it give?
Answer: Its IC50 is < 100 nM.

Question: `COc1cccc2c1OCCn1c-2c(C2CCCCC2)c2ccc(C(=O)NC(C)(C)C(=O)Nc3ccc(C(=O)O)cc3)cc21` [Example 2-306, 4-{2-[(12-cyclohexyl-4-methoxy-6,7-dihydro-5-oxa-7a-azadibenzo[a,e]azulene-9-carbonyl)amino]-2-methylpropionylamino}benzoic acid] was tested. Which IC50 did it give?
Answer: The IC50 was < 100 nM.

Question: How did the IC50 turn out when `COc1ccc(-c2cnc(C(C)(C)NC(=O)c3ccc4c(C5CCCCC5)c5n(c4c3)CCOc3ccccc3-5)[nH]2)cc1` [Example 2-307, N-{1-[5-(4-methoxyphenyl)-1H-imidazol-2-yl]-1-methylethyl}-12-cyclohexyl-6,7-dihydro-5-oxa-7a-azadibenzo[a,e]azulene-9-carboxamide] was run?
Answer: Its IC50 is < 100 nM.

Question: With `COc1ccc2c(c1)OCCn1c-2c(C2CCCCC2)c2ccc(C(=O)N[C@@H](Cc3ccc(O)cc3)CN(C)C)cc21` [Example 2-308, N—[(S)-2-dimethylamino-1-(4-hydroxybenzyl)ethyl]-12-cyclohexyl-3-methoxy-6,7-dihydro-5-oxa-7a-azadibenzo[a,e]azulene-9-carboxamide] as the molecule, how does the IC50 read?
Answer: The IC50 was < 100 nM.

Question: For `COC(=O)[C@H](CCCCNC(=O)OC(C)(C)C)NC(=O)c1ccc2c(C3CCCCC3)c3n(c2c1)CCOc1cc(OC)ccc1-3` [Example 2-309, methyl (S)-6-tert-butoxycarbonylamino-2-[(12-cyclohexyl-3-methoxy-6,7-dihydro-5-oxa-7a-azadibenzo[a,e]azulene-9-carbonyl)amino]hexanoate], which IC50 is on record?
Answer: The IC50 was 100 to 1000 nM.

Question: How did the IC50 turn out when `COc1ccc2c(c1)OCCn1c-2c(C2CCCCC2)c2ccc(C(=O)N[C@@H](Cc3c[nH]cn3)C(=O)O)cc21` [Example 2-310, (S)-2-[(12-cyclohexyl-3-methoxy-6,7-dihydro-5-oxa-7a-azadibenzo[a,e]azulene-9-carbonyl)amino]-3-(1H-imidazol-4-yl)propionic acid] was run?
Answer: The IC50 was < 100 nM.

Question: How did the IC50 turn out when `CC(C)(NC(=O)c1ccc2c(C3CCCCC3)c3n(c2c1)CCOc1ccccc1-3)c1nc2cc(-c3nnn[nH]3)ccc2[nH]1` [Example 2-311, N-{1-methyl-1-[5-(1H-tetrazol-5-yl)-1H-benzimidazol-2-yl]ethyl}-12-cyclohexyl-6,7-dihydro-5-oxa-7a-azadibenzo[a,e]azulene-9-carboxamide] was run?
Answer: The IC50 was < 100 nM.

Question: For `CC(C)(NC(=O)c1ccc2c(C3CCCCC3)c3n(c2c1)CCOc1ccccc1-3)c1nc2ccccc2n1CC(=O)O` [Example 2-312, (2-{1-[(12-cyclohexyl-6,7-dihydro-5-oxa-7a-azadibenzo[a,e]azulene-9-carbonyl)amino]-1-methylethyl}benzimidazol-1-yl)acetic acid], which IC50 is on record?
Answer: The IC50 was < 100 nM.

Question: For `COC(=O)c1ccc2nc(C3(NC(=O)c4ccc5c(C6CCCCC6)c6n(c5c4)CCOc4ccccc4-6)CCN(C)CC3)[nH]c2c1` [Example 2-313, methyl 2-{4-[(12-cyclohexyl-6,7-dihydro-5-oxa-7a-azadibenzo[a,e]azulene-9-carbonyl)amino]-1-methylpiperidin-4-yl]-3H-benzimidazole-5-carboxylate], which IC50 is on record?
Answer: Its IC50 is < 100 nM.

Question: How did the IC50 turn out when `COC[C@H](Cc1ccc(O)cc1)NC(=O)c1ccc2c(C3CCCCC3)c3n(c2c1)CCOc1cc(OC)ccc1-3` [Example 2-314, N—[(S)-1-(4-hydroxybenzyl)-2-methoxyethyl]-12-cyclohexyl-3-methoxy-6,7-dihydro-5-oxa-7a-azadibenzo[a,e]azulene-9-carboxamide] was run?
Answer: Its IC50 is < 100 nM.

Question: For `COC(=O)C(Cc1ccc(O)c(F)c1)NC(=O)c1ccc2c(C3CCCCC3)c3n(c2c1)CCOc1cc(OC)ccc1-3` (stereo not drawn) [Example 2-315, methyl 2-[(12-cyclohexyl-3-methoxy-6,7-dihydro-5-oxa-7a-azadibenzo[a,e]azulene-9-carbonyl)amino]-3-(3-fluoro-4-hydroxyphenyl)propionate], which IC50 is on record?
Answer: Its IC50 is < 100 nM.

Question: `COC(=O)[C@H](Cc1c[nH]c2ccc(O)cc12)NC(=O)c1ccc2c(C3CCCCC3)c3n(c2c1)CCOc1cc(OC)ccc1-3` [Example 2-316, methyl (S)-2-[(12-cyclohexyl-3-methoxy-6,7-dihydro-5-oxa-7a-azadibenzo[a,e]azulene-9-carbonyl)amino]-3-(5-hydroxy-1H-indol-3-yl)propionate] was tested. Which IC50 did it give?
Answer: The IC50 was < 100 nM.

Question: How did the IC50 turn out when `COC(=O)[C@H](Cc1ccc(NC(=O)OCc2ccccc2)cc1)NC(=O)c1ccc2c(C3CCCCC3)c3n(c2c1)CCOc1cc(OC)ccc1-3` [Example 2-317, methyl (S)-3-(4-benzyloxycarbonylaminophenyl)-2-[(12-cyclohexyl-3-methoxy-6,7-dihydro-5-oxa-7a-azadibenzo[a,e]azulene-9-carbonyl)amino]propionate] was run?
Answer: The IC50 was < 100 nM.

Question: Which IC50 does the source give for `COc1ccc2c(c1)OCCn1c-2c(C2CCCCC2)c2ccc(C(=O)N[C@@H](Cc3ccc(NC(=O)OCc4ccccc4)cc3)C(=O)O)cc21` [Example 2-318, (S)-3-(4-benzyloxycarbonylaminophenyl)-2-[(12-cyclohexyl-3-methoxy-6,7-dihydro-5-oxa-7a-azadibenzo[a,e]azulene-9-carbonyl)amino]propionic acid] here?
Answer: The IC50 was < 100 nM.

Question: How did the IC50 turn out when `COC(=O)[C@H](Cc1ccc(N)cc1)NC(=O)c1ccc2c(C3CCCCC3)c3n(c2c1)CCOc1cc(OC)ccc1-3` [Example 2-319, methyl (S)-3-(4-aminophenyl)-2-[(12-cyclohexyl-3-methoxy-6,7-dihydro-5-oxa-7a-azadibenzo[a,e]azulene-9-carbonyl)amino]propionate] was run?
Answer: The IC50 was < 100 nM.

Question: For `COc1ccc2c(c1)OCCn1c-2c(C2CCCCC2)c2ccc(C(=O)N[C@@H](Cc3ccc(N)cc3)C(=O)O)cc21` [Example 2-320, (S)-3-(4-aminophenyl)-2-[(12-cyclohexyl-3-methoxy-6,7-dihydro-5-oxa-7a-azadibenzo[a,e]azulene-9-carbonyl)amino]propionic acid], which IC50 is on record?
Answer: Its IC50 is < 100 nM.

Question: `CC(C)(C)OC(=O)NC1CCN(C(=O)C(C)(C)NC(=O)c2ccc3c(C4CCCCC4)c4n(c3c2)CCOc2ccccc2-4)CC1` [Example 2-321, tert-butyl (1-{2-[(12-cyclohexyl-6,7-dihydro-5-oxa-7a-azadibenzo[a,e]azulene-9-carbonyl)amino]-2-methylpropionyl)piperidin-4-yl)carbamate] was tested. Which IC50 did it give?
Answer: Its IC50 is < 100 nM.

Question: Which IC50 does the source give for `CC(C)(NC(=O)c1ccc2c(C3CCCCC3)c3n(c2c1)CCOc1ccccc1-3)C(=O)N1CCC(O)C1` (stereo not drawn) [Example 2-322, N-[2-(3-hydroxypyrrolidin-1-yl)-1,1-dimethyl-2-oxoethyl]-12-cyclohexyl-6,7-dihydro-5-oxa-7a-azadibenzo[a,e]azulene-9-carboxamide] here?
Answer: Its IC50 is < 100 nM.

Question: `COCc1cccc(-c2cccc3c2OCCn2c-3c(C3CCCCC3)c3ccc(C(=O)O)cc32)c1` [Example 2-323, 12-cyclohexyl-4-(3-methoxymethylphenyl)-6,7-dihydro-5-oxa-7a-azadibenzo[a,e]azulene-9-carboxylic acid] was tested. Which IC50 did it give?
Answer: Its IC50 is < 100 nM.

Question: With `O=C(O)c1ccc2c(C3CCCCC3)c3n(c2c1)CCOc1c(Nc2ccccc2)cccc1-3` [Example 2-324, 12-cyclohexyl-4-phenylamino-6,7-dihydro-5-oxa-7a-azadibenzo[a,e]azulene-9-carboxylic acid] as the molecule, how does the IC50 read?
Answer: Its IC50 is < 100 nM.

Question: For `O=C(O)c1ccc2c(C3CCCCC3)c3n(c2c1)CCOc1c(-c2ccccc2CO)cccc1-3` [Example 2-325, 12-cyclohexyl-4-(2-hydroxymethylphenyl)-6,7-dihydro-5-oxa-7a-azadibenzo[a,e]azulene-9-carboxylic acid], which IC50 is on record?
Answer: Its IC50 is < 100 nM.

Question: For `COCc1ccccc1-c1cccc2c1OCCn1c-2c(C2CCCCC2)c2ccc(C(=O)O)cc21` [Example 2-327, 12-cyclohexyl-4-(2-methoxymethylphenyl)-6,7-dihydro-5-oxa-7a-azadibenzo[a,e]azulene-9-carboxylic acid], which IC50 is on record?
Answer: Its IC50 is < 100 nM.

Question: With `CN(C)Cc1cccc(-c2cccc3c2OCCn2c-3c(C3CCCCC3)c3ccc(C(=O)O)cc32)c1` [Example 2-328, 12-cyclohexyl-4-(3-dimethylaminomethylphenyl)-6,7-dihydro-5-oxa-7a-azadibenzo[a,e]azulene-9-carboxylic acid monohydrochloride] as the molecule, how does the IC50 read?
Answer: Its IC50 is < 100 nM.

Question: `CCOC(=O)c1ccc2c(c1)nc(C(C)(C)NC(=O)c1ccc3c(C4CCCCC4)c4n(c3c1)CCOc1ccccc1-4)n2C` [Example 2-329, ethyl 2-{1-[(12-cyclohexyl-6,7-dihydro-5-oxa-7a-azadibenzo[a,e]azulene-9-carbonyl)amino]-1-methylethyl}-1-methyl-1H-benzimidazole-5-carboxylate] was tested. Which IC50 did it give?
Answer: Its IC50 is < 100 nM.

Question: `Cn1c(C(C)(C)NC(=O)c2ccc3c(C4CCCCC4)c4n(c3c2)CCOc2ccccc2-4)nc2cc(C(=O)O)ccc21` [Example 2-330, 2-{1-[(12-cyclohexyl-6,7-dihydro-5-oxa-7a-azadibenzo[a,e]azulene-9-carbonyl)amino]-1-methylethyl}-1-methyl-1H-benzimidazole-5-carboxylic acid] was tested. Which IC50 did it give?
Answer: Its IC50 is < 100 nM.

Question: `COC(=O)c1cc2nc(C(C)(C)NC(=O)c3ccc4c(C5CCCCC5)c5n(c4c3)CCOc3cc(OC)ccc3-5)[nH]c2cc1OC` [Example 2-331, methyl 2-{1-[(12-cyclohexyl-3-methoxy-6,7-dihydro-5-oxa-7a-azadibenzo[a,e]azulene-9-carbonyl)amino]-1-methylethyl}-6-methoxy-1H-benzimidazole-5-carboxylate] was tested. Which IC50 did it give?
Answer: The IC50 was < 100 nM.
